These results are taken from patent EP2818471A1, “Nitrogen bicyclic compounds as inhibitors for Scyl1 and Grk5” (Max-Planck-Gesellschaft zur Förderung der Wissenschaften …, priority 2013, dated 2014).

Structures are written as SMILES. A value given as a limit tells only on which side of the number the result lay.

In data set [1] the test system is beta-TC6 cells. The data set can be described thus: Insulin release in high glucose medium, rat/mouse insulin ELISA. The class given is cell-based. The note with it: Mus musculus, Beta-TC6, 2 h, high glucose (4.5 g/L) DMEM, Example 9, Figure 6, ± SEM, read-out: increase of insulin release. How it is done: Cells were cultured overnight, washed with PBS and then treated with 5 µM of test compounds as well as non-inhibitor controls for 2 h in a high glucose (4.5 g/L) DMEM at 37°C and 5 % (v/v) CO2. Release of insulin was detected using a rat/mouse insulin ELISA.
(§1) After incubation, the supernatant of the beta-TC6 insulinoma cells was diluted 1:20, whereas the supernatants of the RIN-T2B-5AH were diluted 1:10. The insulin release was measured with rat/mouse insulin ELISA (Merck Millipore Darmstadt, Cat. # EZRMI-13K) by following the manufacture's protocol. The enzyme activity of the horseradish peroxidase of the immobilized biotinylated antibodies was monitored spectrophotometrically by the increased absorbency at 490 nm, and corrected by the absorbency at 610 nm.
Afterwards, the supernatant was analyzed for insulin using the rat/mouse insulin ELISA (Merck Millipore Darmstadt, Cat. # EZRMI-13K) by following the manufacture's protocol..
Cells were treated for 2 h in a high glucose (4.5 g/L) DMEM media at 37°C and 5 % (v/v) CO2. Insulin release was analyzed using the rat/mouse insulin ELISA.

A further data set has as its system beta-TC6 cell system. In words: Comparison of insulin release with commercially available inhibitors, mouse/rat insulin ELISA. To be noted: 2 h; for effect on insulin release: concentration not given. The class given is cell-based. How it is done: Based on literature references, several commercially available inhibitors were compared with compounds according to the invention. […] Cells were cultured for 24 h before treated with the inventive compounds and control inhibitors for 2 h at 37 °C and 5 % (v/v) CO2. Insulin in the supernatant was detected by mouse/rat insulin ELISA.
(ELISA stands for enzyme-linked immunosorbent assay.)

In the next data set the test system is beta-TC6. In words: MTT cytotoxicity assay (cell viability and proliferation). The class given is cell-based, mouse. The note with it: beta-TC6, 72 h treatment, concentrations up to 10 µM. The protocol:
Using a MTT approach, we determined the effect on cell viability and proliferation of beta-TC6 and C2C12 cells to display potential cytotoxicity of the compounds according to the invention in vitro after a 72 h treatment.
For MTT (3-(4,5-dimethylthiazol-2-yl)-2,5-diphenyl tetrazolium bromide) transformation, 1/5 of total volume of a 5 mg/mL MTT stock solution was added to the cells as well as control wells and incubated at 37 °C, 5 % CO2 (v/v) for 1 h. Then 1/2 of total volume of MTT-stop solution was added and plates were incubated overnight in the dark at 25 °C. The optical density (OD) was measured using a multiwell spectrophotometer at a wavelength of 570 nm.
In general terms: Tetrazolium dyes change colour on reduction, which living cells bring about.

In data set [2] the test system is beta-TC6 cells. In words: Insulin release in low glucose medium, rat/mouse insulin ELISA. In kind it is cell-based. The note with it: low glucose 1.125 mM (20 mg/dL), 2 h, relative to DMSO control; Example 6, Figure 5. The protocol:
as §1, with “In order to measure the insulin released upon compound treatment beta-TC6 insulinoma (mouse) and RIN-T2B-5AH (rat islet tumor subclone) cells were washed and incubated for 2 h in high (4.5 g/L) or low (1.125 g/L) glucose media at 37 °C. After” for “After”
Hypoglycemia can cause impairment of cognitive function, motoric control or even consciousness. […] Therefore, we verified the glucose dependent insulin release in beta-TC6 cells using media with 1.125 mM (20 mg/dL) glucose. Cells were cultured for 24 h in a 96-well plate, washed with PBS and then appropriate media was replaced for 2 h at 37°C and 5 % (v/v) CO2. […] The enzyme activity of the horseradish peroxidase of the immobilized biotinylated antibodies was monitored spectrophotometrically by the increased absorbency at 490 nm, and corrected by the absorbency at 610 nm. […]

Data set [3] concerns beta-TC6 cells. In words: Insulin HTRF assay, relative activity Ar normalized to sunitinib. The class given is cell-based. To be noted: Mus musculus, normalized to positive control sunitinib (5 µM = 100%), Table 10. The essentials:
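Relative activity Ar was scaled between 0% and 100% controls, with sunitinib at 5 µM f.c. as reference. Insulin released by beta-TC6 cells was quantified by sandwich HTRF (Eu-cryptate/XL665 antibodies, 120 min RT). Cells had been seeded 24 or 48 h, then treated 2–4 h at 37°C in induction buffer, 0.5% DMSO.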

Another data set concerns C2C12 cells. The data set can be described thus: 2-NBDG glucose uptake by flow cytometry. To be noted: C2C12, 1 h compound treatment; Figure 10.
Where [4] appears, read: Mus musculus, Beta-TC6, 5µM, DMSO = 0, Table 9.

Description for C2C12 cells: Furthermore, as internal controls, samples of glucose free media, respectively glucose free media with test compound, were tested. Subsequently, cells were washed, trypsinized and harvested in ice-cold PBS before centrifuged at 1.6 x10^3 rpm at 4°C. Cells were analyzed by flow cytometry (FACS Calibur, BD Bioscience, respectively a BD Accuri® C6 Flow Cytometer).
To investigate the impact of the Grk5 inhibitors on Glucose uptake, cells were cultured 1 h in glucose free media supplied with 100 µM 2-NBDG at 37 °C and 5 % (v/v) CO2. Furthermore, as internal controls, samples of glucose free media, respectively glucose free media with test compounds, were measured. Fluorescence was analyzed by flow cytometer (FACS Calibur, BD Bioscience, respectively a BD Accuri® C6 Flow Cytometer).

Consider `CC(=O)Nc1cc(-c2cccc(C(=O)NCCO)c2)cn2c(-c3ccc(F)cc3)cnc12` [Cpd c1, reference compound], for which the activation at 5 µM in the data set on beta-TC6 cells [1] stood at 1.3 ± 0.3%. Regarding `COc1ccc(Cl)cc1C(=O)NCCc1ccc(S(=O)(=O)NC(=O)NC2CCCCC2)cc1` [Glibenclamide, reference compound], in the data set with beta-TC6 cell system, the “effect on insulin release” value was “no effect”. `O=C1C(Cl)=C(N2C(=O)CCC2=O)C(=O)c2ccccc21` [MEK, reference compound] yielded an activation at 10 µM in the data set with beta-TC6 cell system (Mus musculus, Beta-TC6, 10µM, DMSO = 0, Table 9) of 67.3%.

As for `CCN(CC)CCNC(=O)c1c(C)[nH]c(/C=C2\C(=O)Nc3ccc(F)cc32)c1C` [Sunitinib, reference compound], in the data set on beta-TC6 cell system (5µM, DMSO = 0, Table 9, listed as Sutent), the “Insulin Release [%]” value is 93.35%. The same compound gave an activation at 5 µM in the data set on beta-TC6 cell system (setting [4]) of 93.3 ± 14.4%. Besides, the toxic effect result with beta-TC6 is listed as “toxic in lower concentrations”. In the data set with beta-TC6 cells [2], the insulin release was 0.77 ± 0.03. On to `CCCCNC(=O)NS(=O)(=O)c1ccc(C)cc1` [Tolbutamide, reference compound], for which the “effect on insulin release” value in the data set with beta-TC6 cell system was “no effect”. The term Emax denotes the size of the effect at its maximum, as opposed to the concentration needed. Regarding `NC(=O)c1ccc(-c2cnc3ccc(Cc4ccccc4)nn23)cc1` [compound 2, 4-(6-benzylimidazo[1,2-b]pyridazin-3-yl)benzamide], the Emax in the data set with beta-TC6 cells [3] lay within 20 to 50%. Further, in the data set with beta-TC6 cell system (setting [4]), the activation at 5 µM was found to be 65.7%. Moreover, the “uptake of 2-NBDG compared with negative control background” value with C2C12 cells was “significantly increased uptake of 2-NBDG”. In the data set on beta-TC6 cells [3], `Nc1ccc(-c2cn3c(-c4cccs4)cnc3cn2)cn1` [compound 427, 5-[3-(2-thienyl)imidazo[1,2-a]pyrazin-6-yl]pyridin-2-amine] registered an Emax of 20 to 50%. In turn, `CC(C)Oc1cccc(-c2cn3c(-c4cccs4)cnc3cn2)c1` [compound 428, 6-(3-isopropoxyphenyl)-3-(2-thienyl)imidazo[1,2-a]pyrazine] yielded an Emax in the data set with beta-TC6 cells [3] of 20 to 50%. Same read-out and setting: next, `CN1CCN(c2ccc(-c3cn4c(-c5ccc(C(=O)N(C)C)cc5)cnc4cn3)cn2)CC1` [compound 429, N,N-dimethyl-4-[6-[6-(4-methylpiperazin-1-yl)-3-pyridyl]imidazo[1,2-a]pyrazin-3-yl]benzamide]: 20 to 50%; `CN(C)C(=O)c1ccc(-c2cnc3cnc(-c4ccccc4Oc4ccccc4)cn23)cc1` [compound 430, N,N-dimethyl-4-[6-(2-phenoxyphenyl)imidazo[1,2-a]pyrazin-3-yl]benzamide]: 20 to 50%; `CN(C)C(=O)c1ccc(-c2cnc3cnc(-c4ccsc4)cn23)cc1` [compound 431, N,N-dimethyl-4-[6-(3-thienyl)imidazo[1,2-a]pyrazin-3-yl]benzamide]: 20 to 50%. Still for that read-out and setting: next, `CC(=O)Nc1cccc(-c2cn3c(-c4ccc(C(=O)N(C)C)cc4)cnc3cn2)c1` [compound 432, 4-[6-(3-acetamidophenyl)imidazo[1,2-a]pyrazin-3-yl]-N,N-dimethyl-benzamide]: 20 to 50%; `CN(C)C(=O)c1ccc(-c2cnc3cnc(-c4ccc5c(ccn5C)c4)cn23)cc1` [compound 433, N,N-dimethyl-4-[6-(1-methylindol-5-yl)imidazo[1,2-a]pyrazin-3-yl]benzamide]: 20 to 50%. Still for that read-out and setting: then `CC(=O)c1ccc(-c2cn3c(-c4ccc(C(=O)NC5CC5)cc4)cnc3cn2)s1` [compound 434, 4-[6-(5-acetyl-2-thienyl)imidazo[1,2-a]pyrazin-3-yl]-N-cyclopropyl-benzamide], with 20 to 50%; and `CC(C)N1CCN(c2ccc(-c3cn4c(-c5ccc(C(=O)NC6CC6)cc5)cnc4cn3)cc2)CC1` [compound 435, N-cyclopropyl-4-[6-[4-(4-isopropylpiperazin-1-yl)phenyl]imidazo[1,2-a]pyrazin-3-yl]benzamide], with 20 to 50%. As to `COc1cc(OC)cc(-c2cnc3cnc(-c4ccccc4N(C)C)cn23)c1` [compound 436, 2-[3-(3,5-dimethoxyphenyl)imidazo[1,2-a]pyrazin-6-yl]-N,N-dimethylaniline], the Emax in the data set on beta-TC6 cells [3] lay within 20 to 50%. For `COc1cc(OC)cc(-c2cnc3cnc(-c4cccc(OC(C)C)c4)cn23)c1` [compound 437, 3-(3,5-dimethoxyphenyl)-6-(3-isopropoxyphenyl)imidazo[1,2-a]pyrazine], the Emax with beta-TC6 cells [3] fell in the range of 20 to 50%. Same read-out and setting: then `Cn1cc(-c2cnc3cnc(-c4ccncc4)cn23)cn1` [compound 438, 3-(1-methylpyrazol-4-yl)-6-(4-pyridyl)imidazo[1,2-a]pyrazine], with 20 to 50%; and `Cn1cc(-c2cnc3cnc(-c4cc5ccccc5s4)cn23)cn1` [compound 439, 6-(benzothiophen-2-yl)-3-(1-methylpyrazol-4-yl)imidazo[1,2-a]pyrazine], with 20 to 50%; and `COc1cc(-c2cn3c(-c4ccc5ncccc5c4)cnc3cn2)cc(OC)c1OC` [compound 440, 6-[6-(3,4,5-trimethoxyphenyl)imidazo[1,2-a]pyrazin-3-yl]quinoline], with 20 to 50%.

In the case of `COc1cc(-c2cn3c(-c4ccc5ncccc5c4)cnc3cn2)ccc1O` [compound 441, 2-methoxy-4-[3-(6-quinolyl)imidazo[1,2-a]pyrazin-6-yl]phenol], the Emax in the data set on beta-TC6 cells [3] is 20 to 50%. The compound `Cc1cc(-c2cn3c(-c4ccc5ncccc5c4)cnc3cn2)cc(C)c1O` [compound 442, 2,6-dimethyl-4-[3-(6-quinolyl)imidazo[1,2-a]pyrazin-6-yl]phenol] had an Emax in the data set with beta-TC6 cells [3] of 20 to 50%. The same measure, in the same setting: then `Cn1ccc2cc(-c3cn4c(-c5ccc6ncccc6c5)cnc4cn3)ccc21` [compound 443, 6-[6-(1-methylindol-5-yl)imidazo[1,2-a]pyrazin-3-yl]quinoline], with no less than 100%. `CS(=O)(=O)Nc1cccc(-c2cn3c(-c4ccc5ncccc5c4)cnc3cn2)c1` [compound 444, N-[3-[3-(6-quinolyl)imidazo[1,2-a]pyrazin-6-yl]phenyl]methanesulfonamide] registered an Emax in the data set with beta-TC6 cells [3] of 20 to 50%.
